Test results from patent US10370438B2, “Histamine-releasing factor (HRF), HRF-receptor and methods of modulating inflammation” (LA JOLLA INSTITUTE FOR ALLERGY AND IMMUNOLOGY, priority 2010, dated 2019).
“Also recorded” adds a separate entry of the source.

What was measured:
[1] = system: CHO-K1 cells; details: 800 nM H2O2, 2 days
Method: (§1) To analyze the effect of GST-N19 on intracellular functions of HRF/TCTP, the indicated cells were cultured in the absence (−) or presence of the indicated concentrations of GST or GST-N19 for 2 days, and live cells were counted in the presence of Trypan blue. […] The usual dose of HRF to stimulate basophils is 1.6-5 μM (Langdon, et al., J Leukoc Biol 84, 1151 (October, 2008)). Apoptosis was induced by growth factor withdrawal, IL-3 depletion, in BMMCs for 3 days and by 800 nM H2O2 in CHO-K1 cells for 2 days, and live cells were counted.

[2] = system: CHO-K1 (Chinese hamster ovary cell); details: CHO-K1, 3.6 or 36 μM, 2 days
Method: as §1

[3] = system: HRF/IgG binding; test: Inhibition of HRF/IgG binding; set-up: species or system mouse
Method: (§2) To identify an inhibitor of HRF/Ig interactions to dissect the extracellular function (═HRF function as a cytokine) separate from the intracellular functions in vivo settings, the major Ig-interacting HRF sequence was studied as a specific inhibitor of HRF/Ig interactions. IgE molecules were incubated in GST-mHRF-coated wells in the presence or absence (−) of the indicated concentrations of competitors, GST-N19, GST-mHRF or mHRF-His6 for 2 hours. After incubation, bound-IgE was detected by incubation with biotinylated anti-mouse IgE mAb, followed by streptavidin-HRP. […] By contrast, none of the shorter mHRF peptides tested (residues 1-6, 1-12, 5-19, and 9-19) inhibited HRF/IgE binding. GST-N19 inhibited HRF/IgG binding as well.

[4] = system: mice; test: T cell-dependent/mast cell-independent airway inflammation model (OVA with alum); assay type: in vivo, mouse; details: mice immunized with OVA with alum and challenged with OVA
[5] = system: WT mice; test: IgE/antigen-induced PCA with GST-N19 ear injection; assay type: in vivo, mouse
Method: Mouse ears were first sensitized with 0.5 μg anti-TNP (C38-2 in the right ear and C48-2 in the left ear) IgE. After 24 hours, Evans' blue dye was intravenously (i.v.) injected, and TNP26-BSA (Ag: 0.1 μg) or mHRF-His6 (10 μg) were immediately injected into the ears. The acute (30 minute) reactions were analyzed by measurement of Evans' blue dye leakage. The ear thickness was measured using a micrometer (Mitutoyo) at 0.5, 1, 2, 4, 6, 8, 12, and 24 hours after mHRF-His6challenge. As a negative control, saline was injected into the ears in place of antigen or HRF challenge. IgG-mediated response was performed by sensitization with 2 μg IgG1 (in place of anti-TNP IgE) and challenge with anti-mouse IgG1 Ab (0.6 μg: Southern Biotechnology, in place of TNP26-BSA). Engraftmanet of Kit^W-sh/W-sh mice with BMMCs was performed 6 weeks before study (Nakano, T., et al. J Exp Med 162:1025-1043 (1985)). In some studies, mice were sensitized and stimulated as described above but without Evans blue.
To study HRFs involvement in IgE/antigen-induced PCA reactions, WT mice were overnight sensitized the IgE. Left ears were injected with GST and the right ears were injected with GST-N19, and then TNP26-BSA were injected in both ears. Ear thickness was measured over a 10 hour period. *, **, ***: p<0.05, p<0.01, p<0.001 by Student's t-test. […]

[6] = system: C57BL/6 mice; test: OVA-induced mast cell-dependent airway inflammation model; assay type: in vivo, mouse
Method: Mice were sensitized with OVA (10 μg in 0.1 ml saline) at days 0, 7, 14, 21, 28, and 35. Sensitized mice were challenged with OVA (20 μg in 20 μl saline) at days 40, 43 and 46. Some mice were pretreated with GST, GST-N19 (400 μg in PBS), or N19 peptide (40 μg in 2% DMSO-containing PBS) 15 minutes before OVA challenge. Twenty-four hours after the last challenge, lung function in response to methacholine was tested using FlexiVent system (SCIREQ Scientific Respiratory Equipment). Mice were sacrificed and plasma, BAL fluids, and lung tissues were collected. Cells in BAL fluids were counted, and specific cell numbers were calculated after May-Giemsa staining of Cytospin preparations. Immunofluorescence microscopy was performed on membrane-permeabilized and non-permeabilized lung tissues. For staining of lung tissues by staining of H&E and periodic acid-Schiff (PAS), lung tissues were fixed with formalin and embedded in paraffin. For measurement of cytokine levels in lung tissues, lung homogenates were prepared (Oyoshi et al., Immunol. 120:303 (2007)) and cytokines quantified by ELISA. HRF in lung homogenates and plasma was SDS-PAGE and immunoblotting with anti-HRF Ab (Santa Cruz Biotechnology).
Asthma is a type 2 helper T cell-driven, chronic inflammatory lung disease (Wills-Karp, Annu Rev Immunol 17, 255 (1999)). To study HRF involvement in allergic airway inflammation, an airway inflammation model was utilized, in which mast cells are implicated in amplifying antigen-dependent chronic inflammation (Williams, et al., J Exp Med 192, 455 (Aug. 7, 2000)). C57BL/6 mice were first sensitized with OVA (10 μg) at days 0, 7, 14, 21, 28 and 35. At days 40, 43 and 46, mice were intranasally challenged with OVA (20 μg) or PBS. Some mice were intranasally pretreated with GST or GST-N19 (400 μg) before every OVA challenge. Twenty-four hours after the last challenge, mice were sacrificed and BAL fluids and lung tissues were collected. Lung tissues were homogenized.

[7] = system: BMMCs; assay type: cell-based, mouse
[8] = system: HRF/IgE binding; test: Competition ELISA of IgE binding to GST-mHRF-coated wells; set-up: species or system mouse
Method: as §2

Substance: GST-N19: GST fusion protein encoding the first 19 residues of mHRF; inhibitor of HRF/Ig interactions
- Live cells after induced apoptosis [1]: not affected
- Viability or proliferation [2]: did not affect
- Inhibition of HRF/IgG binding [3]: inhibited
- Airway inflammation [4]: failed to inhibit; also recorded: does not inhibit
- PCA (ear thickness) ([5]; HRF-nonreactive IgE-induced PCA): insensitive
- Acute reactions and LPR (ear thickness) ([5]; HRF-reactive IgE-induced PCA, TNP26-BSA challenge): significantly reduced
- Inflammatory cells, particularly eosinophils and neutrophils, in BAL fluids ([6]; 400 μg before every OVA challenge): reduced
- Inflammatory cells and goblet cell hyperplasia in the lung ([6]; H&E and PAS staining): reduced
- HRF in plasma ([6]; OVA-immunized/OVA-challenged mice): reduced
- Airway inflammation ([6]; intranasal pretreatment before each OVA challenge): abrogated
- Production of IL-5 in lung tissues ([6]; lung homogenates, ELISA): drastically decreased
- Production of IL-13 in lung tissues ([6]; lung homogenates, ELISA): drastically decreased; also recorded: suppression
- HRF-reactive IgG levels in plasma ([6]; mouse, in vivo): not affected
- OVA-specific IgE levels in plasma ([6]; mouse, in vivo): not affected
- OVA-specific IgG1 levels in plasma ([6]; mouse, in vivo): not affected
- OVA-specific IgG2a levels in plasma ([6]; mouse, in vivo): not affected
- Airway hyper-responsiveness (AHR) ([6]; response to methacholine): inhibited
- Effects on mast cell growth and apoptosis [7]: absence of GST-N19 effects
- Potency of inhibition of IgE binding relative to full-length HRF competitors [8]: potency similar to that shown by GST-mHRF and mHRF-His6
- Inhibition of IgE binding to immobilized GST-mHRF ([8]; competitor incubated 2 hours): inhibited
